Source: patent US20110081428A1, “Use of thioflavin-like compounds to increase life span and/or health span” (priority 2009, published 2011)
Entries after “also recorded” stand apart in the source; their conditions may differ.

How the values were obtained:
ZZ26 unc-63(x26)I = settings: 50 μM levamisole, after 3 days of treatment
Protocol: Scoring for paralysis was initiated 2 and 8 days after temperature upshift for CL4176 and AM140, respectively. […] For sensitivity to EtOH or levamisole resistance, CW152 gas-1 (fc21) X and ZZ26 unc-63(x26)I worms were picked into 0.4 M EtOH or 50 μM levamisole, respectively, equilibrated for 5 min, and scored for paralysis as described above. Treated and untreated worms were compared with an unpaired t-test (implemented in Prism 4, Graphpad™ Software, Inc., San Diego, Calif., USA).

DA465 [eat-2(ad465)II] = experiment: Lifespan assay, eat-2 mutant; format: in vivo, Caenorhabditis elegans; settings: 50 μM ThT
Protocol: Lifespan assays were performed as described previously. (McColl, G. et al. Pharmacogenetic analysis of lithium-induced delayed aging in Caenorhabditis elegans. J Biol Chem 283, 350-357 (2008). Briefly, the nematode growth media (NGM) plates were prepared under sterile conditions. 100 μL of concentrated stocks of each of the compounds used in this study were added onto a previously prepared NGM small plate (3 mL volume) immediately spread over the surface of the plate. The final concentrations quoted in the text assume an even distribution of compound throughout the 3 ml plate. The plates were then placed in a laminar flow hood at room temperature for 30 min and then 60 μL of a concentrated suspension of E. coli OP50 was spotted to form a circular lawn on the center of each plate. Thirty late L4 larvae growing at 20° C. were transferred to fresh NGM plates with FUdR (75 μM) in presence or absence of the specified compounds and incubated at 20° C. The first day of adulthood is Day 3 in survival curves. There was between-experiment variation in the magnitude of the lifespan extension observed with ThT which appeared to correlate with different suppliers and batches. ThT concentration should be optimized depending on batch and purity and stability of the compound. […]
Animals were scored as alive, dead or lost every other day. […]

[1] = test system: DAF-16 fusion protein [TJ356 daf-16::daf-16-gfp]; experiment: DAF-16::GFP localization; format: in vivo, Caenorhabditis elegans; settings: ThT or curcumin treatment, no heat shock
Protocol: (§1) For fluorescent microscopy, TJ356 zIs356 IV [daf-16::daf-16-gfp+rol-6] or CF2189 Is001(skn-1::gfp+rol-6) were paralyzed with 1 mM levamisole mounted on 1% agarose pads and imaged using Olympus BX51 (60× objective) and HCImage software (Hamamatsu). For immunofluorescence, N2, […], CB1157 unc-54(e1157) or CL4176 dvIs27 [myo-3::Aβ(3 to 42)-let 3′UTR(pAF29); pRF4 (rol-6(su1006))] worms were treated for 24-36 h with or without 50 μM ThT at 25° C. After this period the worms were collected, rinsed, and fixed in 4% paraformaldehyde overnight. […] Paramyosin and perlecans were detected with primary monoclonal antibodies 5-23 and MH3 (developed by Henry Epstein and Robert H. Waterston and obtained from the Developmental Studies Hybridoma Bank developed under the auspices of the NICHD and maintained by The University of Iowa, Department of Biology, Iowa City, Iowa 52242) and AlexaFluor 633 goat anti-mouse (Molecular Probes) as secondary antibody. Soluble oligomers and Aβ peptide were detected with anti polyclonal All (Invitrogen) and 6E10 monoclonal (Covance) primary antibodies, respectively, with AlexaFluor 568 goat anti-rabbit and AlexaFluor 488 goat anti-mouse (Molecular Probes) as secondary antibodies. Images were processed and quantified by using Image Analyst MK II (Novato, Calif.).

[2] = test system: HE250 [unc-52(e669su250)II]; experiment: Worm paralysis assay, unc-52 ts mutant; format: in vivo, Caenorhabditis elegans
[3] = test system: N2 worms raised on 1×10^9 cfu/ml; experiment: Lifespan under dietary restriction (diluted bacterial food); settings: 20° C.
Protocol: Plates were prepared as described (Chen, D., Thomas, E. L. & Kapahi, P. HIF-1 modulates dietary restriction-mediated lifespan extension via IRE-1 in Caenorhabditis elegans. PLoS Genet. 5, e1000486, (2009), but bacterial concentration was adjusted to 1.0×10^12 cfu/ml and diluted to achieve bacterial concentration of 1.0×10^9 cfu/ml. Diluted bacterial cultures were spotted onto DR agar plates, which were modified from the standard nematode growth media (NGM) plates by excluding peptone and increasing agar from 1.7% to 2.0%. Carbenicillin ([…]) was added to the agar plates to further prevent bacterial growth. Synchronized L4 larvae grown under standard lab conditions (NGM plates with OP50 food, 20° C.) were transferred to fresh DR agar plates in presence or absence of 1, 10, 25, 50 and 100 μM ThT and lifespans scored as described above.

[4] = test system: UNC-54 (paramyosin) in unc-54(e1157)I; experiment: Paramyosin immunolocalization / sarcomere structure; format: in vivo, Caenorhabditis elegans; settings: 50 μM ThT, 24 h at 25° C.
Protocol: as §1

[5] = test system: CL4176 (Aβ3-42 expressed in muscle); experiment: Worm paralysis assay, Aβ model; format: in vivo, Caenorhabditis elegans

With `Cc1ccc2c(c1)sc(-c1ccc(N(C)C)cc1)[n+]2C.[Cl-]` [ThT, 4-(3,6-dimethyl-1,3-benzothiazol-3-ium-2-yl)-N,N-dimethylaniline chloride] the levamisole resistance (ZZ26 unc-63(x26)I) was “increases levimisole resistance”, the “lifespan of eat-2 mutant (genetic DR model)” value (DA465 [eat-2(ad465)II]) was “increased the lifespan” and the “DAF-16::GFP localization” value [1] was “did not alter the normal localization”. The “paralysis phenotype, continuous exposure and addition after 18 h at restrictive temperature” value ([2]; HE250, 50 μM ThT, scored after 36 h at 25° C.) was “Prevention of paralysis phenotype”, the “paralysis phenotype of unc-52 mutant” value ([2]; HE250, 25° C., 36 h, 50 μM ThT, 100 μM curcumin, 100 μM rifampicin) was “suppressed paralysis; also recorded: Protection” and the “lifespan in bacterial dilution DR model” value ([3]; 50 μM ThT) was “detrimental to lifespan”. For the same compound, the “increase in lifespan in bacterial dilution DR model” value ([3]; 1 and 10 μM ThT) was 24%, the muscle sarcomere structure [4] was “prevented the disruption of the muscle sarcomeres” and the “paralysis when treated after aggregation induction” value ([5]; CL4176, 50 μM ThT added 18 h after induction of aggregate formation) was “rescued the Aβ3-42 aggregation-induced paralysis”. The “proportion of paralyzed worms” value ([5]; CL4176, 25° C., 50 μM ThT, 100 μM curcumin) was “significantly decrease the proportion of paralyzed worms”.
